In patent US20120165309A1, “HETERO RING DERIVATIVE” (Astellas Pharma Inc., priority 2009, published 2012) one finds IC50 and inhibition in vivo data, which are given here for ten compounds.

The structures appear in SMILES notation. Structures can show the parent of a compound that is named as a salt.

Assay [1] concerns the target T1, human PI3Kδ enzyme (Homo sapiens, UniProt O00329).
T1 construct: purchased Millipore Corporation 14-604
Nature of the assay: PI3Kδ enzyme inhibitory activity (PI3-Kinase HTRF Assay kit). The note with it: human PI3Kδ 10 ng/well, ATP 30 μM, PIP2 10 μM, room temperature 30 minutes. In kind it is biochemical. Put shortly: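 Human PI3Kδ (10 ng/well) with phosphatidylinositol-4,5-bisphosphate (10 μM), ATP (30 μM) and compound, 30 min at room temperature; stopped with EDTA/biotin-PIP3. HTRF read after overnight detection (Eu anti-GST, GST-GRP1 PH, streptavidin-APC).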
(In TR-FRET formats the signal depends on donor and acceptor labels being close together.)

Assay [2] deals with T2, Human PI3Kα (Homo sapiens, UniProt P42336).
T2 construct: purchased Millipore Corporation 14-602
Nature of the assay: PI3Kα enzyme inhibitory activity (Kinase-Glo Plus luminescence). Particulars: Human PI3Kα 12 ng/well, phosphatidylinositol 0.2 μg/well, 37° C. for 3 hours. The class given is biochemical. A general note: Kinase-Glo reads ATP consumption through a luciferase reaction.

Assay [3] has as its system Spleen cells (B cell proliferation). Put plainly: Rat B cell proliferation inhibition test (anti-rat IgM, [3H]thymidine). In kind it is cell-based. Particulars: anti-rat IgM 3 μg/well, 48 hours culture, [3H]thymidine uptake. How it is done:
4. Rat B Cell Proliferation Inhibition Test
Spleen cells (1.0×10^5 cells/well) prepared from male LEW/CrlCrlj rats (Charles River Laboratories, Japan, Inc.), mouse F(ab′)2 fragment anti-rat IgM (3 μg/well, SouthernBiotech Associates, Inc., Catalogue No. 3082-14) and the test compound dissolved in DMSO (final DMSO concentration 0.1%) were mixed in a 96-well plate using a 10% FCS-containing RPMI-1640 culture medium (total 200 μL). They were cultured in a CO2 incubator for 48 hours and [^3H]thymidine (925 GBq/mmol, Moravek Biochemicals, Inc., Catalogue No. MT6038) was added thereto at 0.037 MBq/well at 4 hours before completion of culture. Cells were harvested in a GF/C glass filter using a cell harvester, and a radioactivity on the filter was measured using a liquid scintillation counter. The IC50 value of the compound was calculated, taking the dpm (disintegration per minute) without addition of IgM as an inhibition rate of 100% and the dpm without addition of the test compound as an inhibition rate of 0%, by a logistic method.

Assay [4] relates to IL-2 production. Nature of the assay: Rat in vivo IL-2 production inhibition test (Concanavalin A induced). Particulars: po, male LEW/CrlCrlj rats, 10 mg/kg orally, 2 hours before Concanavalin A 15 mg/kg i.v., blood IL-2 at 3 hours after Concanavalin A, read-out: IL-2 production inhibition activity (inhibition rate vs vehicle control). Here is the method:
3. Rat In vivo IL-2 Production Inhibition Test
For the experiment, male LEW/CrlCrlj rats (Charles River Laboratories, Japan, Inc.) (6-week old, body weight 130 to 180 g) were used. The test compound was suspended in a 0.5% methyl cellulose solution and orally administered at 5 mL/kg. IL-2 production was induced by tail vein injection of Concanavalin A (Funakoshi Corporation, Catalogue No. L-1000) at a dose of 15 mg/kg.
The test was carried out according to the protocol shown below. At 2 hours or 16 hours before administration of Concanavalin A, the test compound was orally administered to rats. At 3 hours after administration of Concanavalin A, blood was collected. The IL-2 concentration in blood was quantified using an ELISA kit (R&D Systems, Inc., Catalogue No. DY502E). An inhibition rate was calculated from the amount of IL-2 produced in a group administered with the test compound with respect to the amount of the IL-2 produced of a control group administered with a vehicle.

T2 sequence (P42336 whole entry): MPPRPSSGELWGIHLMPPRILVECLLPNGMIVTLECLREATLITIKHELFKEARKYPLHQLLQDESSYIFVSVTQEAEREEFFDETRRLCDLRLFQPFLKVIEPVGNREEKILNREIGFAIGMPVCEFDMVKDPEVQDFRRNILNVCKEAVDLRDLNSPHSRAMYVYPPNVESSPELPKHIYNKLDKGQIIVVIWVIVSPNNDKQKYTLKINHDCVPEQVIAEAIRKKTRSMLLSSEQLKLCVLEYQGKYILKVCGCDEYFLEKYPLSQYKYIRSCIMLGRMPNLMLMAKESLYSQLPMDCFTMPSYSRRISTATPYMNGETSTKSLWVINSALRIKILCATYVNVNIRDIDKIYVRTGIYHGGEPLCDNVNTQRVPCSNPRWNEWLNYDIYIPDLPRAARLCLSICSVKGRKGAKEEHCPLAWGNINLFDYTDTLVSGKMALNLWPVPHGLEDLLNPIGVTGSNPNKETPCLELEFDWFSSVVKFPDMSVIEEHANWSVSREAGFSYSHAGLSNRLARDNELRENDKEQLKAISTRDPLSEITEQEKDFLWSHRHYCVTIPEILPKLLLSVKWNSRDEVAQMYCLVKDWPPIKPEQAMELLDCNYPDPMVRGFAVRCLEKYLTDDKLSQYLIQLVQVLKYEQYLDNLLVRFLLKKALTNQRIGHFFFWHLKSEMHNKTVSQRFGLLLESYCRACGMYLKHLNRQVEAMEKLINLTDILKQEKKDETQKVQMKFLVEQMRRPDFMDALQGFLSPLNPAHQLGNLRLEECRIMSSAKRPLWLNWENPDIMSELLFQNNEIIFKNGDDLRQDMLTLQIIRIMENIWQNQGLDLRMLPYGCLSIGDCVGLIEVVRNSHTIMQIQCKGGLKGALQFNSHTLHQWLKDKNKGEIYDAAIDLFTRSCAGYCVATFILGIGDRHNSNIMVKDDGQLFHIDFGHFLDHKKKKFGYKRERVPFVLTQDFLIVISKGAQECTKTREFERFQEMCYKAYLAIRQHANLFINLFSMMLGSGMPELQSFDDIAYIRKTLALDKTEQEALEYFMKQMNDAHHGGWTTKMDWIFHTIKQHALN
T2 sequence (P27986 whole entry partner): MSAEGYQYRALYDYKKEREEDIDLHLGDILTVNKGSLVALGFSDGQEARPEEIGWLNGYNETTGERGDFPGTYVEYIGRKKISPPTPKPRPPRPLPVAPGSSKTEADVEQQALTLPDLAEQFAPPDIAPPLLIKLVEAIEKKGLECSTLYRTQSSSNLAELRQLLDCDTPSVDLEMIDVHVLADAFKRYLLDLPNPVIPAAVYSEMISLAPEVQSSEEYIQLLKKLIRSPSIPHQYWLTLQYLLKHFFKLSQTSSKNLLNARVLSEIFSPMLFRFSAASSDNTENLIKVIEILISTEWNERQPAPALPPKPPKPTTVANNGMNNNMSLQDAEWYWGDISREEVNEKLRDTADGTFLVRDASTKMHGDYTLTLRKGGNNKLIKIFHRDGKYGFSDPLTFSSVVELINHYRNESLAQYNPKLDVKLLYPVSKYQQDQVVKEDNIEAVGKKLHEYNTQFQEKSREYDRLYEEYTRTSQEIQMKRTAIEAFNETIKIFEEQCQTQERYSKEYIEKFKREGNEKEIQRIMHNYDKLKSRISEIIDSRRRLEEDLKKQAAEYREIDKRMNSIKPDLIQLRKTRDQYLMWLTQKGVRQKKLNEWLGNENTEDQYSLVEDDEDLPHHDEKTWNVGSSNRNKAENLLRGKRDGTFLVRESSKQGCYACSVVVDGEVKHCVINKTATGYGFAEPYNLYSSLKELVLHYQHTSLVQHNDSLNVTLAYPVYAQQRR
T1 sequence (O00329 whole entry): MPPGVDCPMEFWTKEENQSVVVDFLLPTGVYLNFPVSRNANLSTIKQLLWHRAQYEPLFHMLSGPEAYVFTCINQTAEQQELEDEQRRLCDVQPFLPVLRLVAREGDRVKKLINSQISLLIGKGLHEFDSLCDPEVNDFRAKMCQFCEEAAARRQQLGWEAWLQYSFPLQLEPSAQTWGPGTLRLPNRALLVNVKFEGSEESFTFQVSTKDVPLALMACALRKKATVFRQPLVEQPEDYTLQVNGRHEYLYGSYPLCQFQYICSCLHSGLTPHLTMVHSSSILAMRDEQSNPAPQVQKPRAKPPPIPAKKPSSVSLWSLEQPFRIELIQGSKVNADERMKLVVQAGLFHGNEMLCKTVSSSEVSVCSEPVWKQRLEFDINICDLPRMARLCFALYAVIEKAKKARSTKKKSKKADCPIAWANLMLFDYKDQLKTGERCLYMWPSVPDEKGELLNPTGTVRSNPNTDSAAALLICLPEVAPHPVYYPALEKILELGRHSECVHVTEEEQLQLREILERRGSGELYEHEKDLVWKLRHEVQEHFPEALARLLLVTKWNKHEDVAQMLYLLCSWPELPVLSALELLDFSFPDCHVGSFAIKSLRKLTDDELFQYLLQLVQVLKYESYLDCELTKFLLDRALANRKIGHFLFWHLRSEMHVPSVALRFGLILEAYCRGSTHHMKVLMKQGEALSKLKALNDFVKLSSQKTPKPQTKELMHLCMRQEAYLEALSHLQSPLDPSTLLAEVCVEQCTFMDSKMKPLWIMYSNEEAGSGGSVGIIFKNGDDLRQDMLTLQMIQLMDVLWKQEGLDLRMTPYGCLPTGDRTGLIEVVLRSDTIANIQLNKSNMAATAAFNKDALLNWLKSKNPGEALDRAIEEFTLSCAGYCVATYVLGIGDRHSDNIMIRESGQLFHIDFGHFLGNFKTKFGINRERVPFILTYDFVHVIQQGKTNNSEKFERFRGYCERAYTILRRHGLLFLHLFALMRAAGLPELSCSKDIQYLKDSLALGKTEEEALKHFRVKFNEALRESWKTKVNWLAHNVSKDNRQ
T1 sequence (P27986 whole entry partner): as the sequence (P27986 whole entry partner) above

With `CN(C)[C@H]1CC[C@H](Nc2nc(N3CCOCC3)nc(-n3c(C(F)F)nc4ccccc43)n2)CC1` [Example 4, trans-N′-{4-[2-(difluoromethyl)-1H-benzimidazol-1-yl]-6-morpholin-4-yl-1,3,5-triazin-2-yl}-N,N-dimethylcyclohexane-1,4-diamine], the results for the 50% inhibitory concentration (IC50) in assay [1], in assay [2] and in assay [3] were 33 nM, 2000 nM and 1.8 nM, respectively. For the same compound, in assay [4], the inhibition in vivo at 10 mg/kg came to 83%.

As to `O=C1CCCN1[C@H]1CC[C@H](Nc2nc(N3CCOCC3)cc(-n3c(C(F)F)nc4ccccc43)n2)CC1` [Example 11, 1-[trans-4-({4-[2-(difluoromethyl)-1H-benzimidazol-1-yl]-6-morpholin-4-ylpyrimidin-2-yl}amino)cyclohexyl]pyrrolidin-2-one], the IC50 – broadly, the concentration that gives 50% inhibition – stood at 14 nM in assay [1], 930 nM in assay [2] and 6.1 nM in assay [3]. The inhibition in vivo at 10 mg/kg in assay [4] is 80%.

On to `CN(C)CC(=O)N[C@H]1CC[C@H](Oc2cc(-n3c(C(F)F)nc4ccccc43)nc(N3CCOCC3)n2)CC1` [Example 24, N-[trans-4-({6-[2-(difluoromethyl)-1H-benzimidazol-1-yl]-2-morpholin-4-ylpyrimidin-4-yl}oxy)cyclohexyl]-N,N-dimethylglycinamide hydrochloride], for which the IC50 in assay [1] is 5.2 nM; in assay [2], more than 3000 nM; in assay [3] it was 4.2 nM. The inhibition in vivo at 10 mg/kg in assay [4] worked out at 79%.

Regarding `CN(C)CC(=O)N[C@H]1CC[C@H](Nc2nc(N3CCOCC3)nc(-n3c(C(F)F)nc4ccccc43)n2)CC1` [Example 40], the IC50 in assay [2] came out at 1200 nM. Further, the inhibition in vivo at 10 mg/kg in assay [4] came to 94%.

As to `CN(C)CC(=O)N[C@H]1CC[C@H](Nc2cc(-n3c(C(F)F)nc4ccccc43)nc(N3CCOCC3)n2)CC1` [Example 46], the IC50 is 44 nM in assay [1], more than 3000 nM in assay [2] and 5.2 nM in assay [3]. Also, the inhibition in vivo at 10 mg/kg in assay [4] was 71%.

Take `CC(=O)N[C@H]1CC[C@H](Nc2nc(N3CCOCC3)cc(-n3c(C(F)F)nc4ccccc43)n2)CC1` [Example 194]: in assay [4], the inhibition in vivo at 10 mg/kg was found to be 89%.

For `FC(F)c1nc2ccccc2n1-c1cc(N2CCOCC2)nc(NC[C@H]2CC[C@H](N3CCOCC3)CC2)n1` [Example 201], in assay [4], the inhibition in vivo at 10 mg/kg was 76%.

In the case of `FC(F)c1nc2ccccc2n1-c1cc(N2CCOCC2)nc(NC[C@H]2CC[C@H](N3CCCCC3)CC2)n1` [Example 202], in assay [4], the inhibition in vivo at 10 mg/kg was found to be 80%.

With `CN(CCF)[C@H]1CC[C@H](CNc2nc(N3CCOCC3)cc(-n3c(C(F)F)nc4ccccc43)n2)CC1` [Example 206], the values for the IC50 in assay [1], in assay [2] and in assay [3] were 4.4 nM, 3300 nM and 4.1 nM, respectively. The inhibition in vivo at 10 mg/kg in assay [4] was determined as 83%.

For the compound `COCCN(C)[C@H]1CC[C@H](CNc2nc(N3CCOCC3)cc(-n3c(C(F)F)nc4ccccc43)n2)CC1` [Example 219], the half-inhibitory concentration (IC50) came to 14 nM in assay [1], 6000 nM in assay [2] and 3.5 nM in assay [3]. The inhibition in vivo at 10 mg/kg in assay [4] came to 78%.
